Results: patent US20060216299A1, “Cell cycle targets and peptides” (Rigel Pharmaceuticals, Inc., priority 2002, published 2006)

Test system: A549.tTA cells expressing #38 and #41
Assay: Role of farnesylation in cellular localization of GFP fused #38
Assay type: cell-based, human
Settings: 2 μM L-744,832, 48 hours
Procedure: #38 has a CAAX box motif in the C-terminus. A 15-carbon farnesyl or 20-carbon geranylgeranyl isoprenoid is linked to the Cys in a CAAX box motif by Farnesyl transferase or Geranylgeranyl transferase, respectively (Fu, H. W. et al., Recent Prog Horm Res, 54:315-342; discussion 342-313 (1999)). The role of farnesylation in cellular localization of #38 was examined. A549.tTA cells expressing #38 and #41 were treated with a peptidomimetic farnesyltransferase specific inhibitor, L-744,832 for 48 hours.

## CC[C@H](C)[C@@H](CO[C@@H](Cc1ccccc1)C(=O)N[C@@H](CCS(C)(=O)=O)C(=O)OC(C)C)NC[C@@H](N)CS [L-744,832]
  cellular localization of #38 in the presence of inhibitor: completely abolished
